Data taken from ChEMBL document CHEMBL1155044, “Elucidation of different binding modes of purine nucleosides to human deoxycytidine kinase” (J Med Chem, 2008).

Assays:
[1] = test system: Nc1nc(O)c2ncn([C@H]3C[C@H](O)[C@@H](CO)O3)c2n1; settings: Homo sapiens
[2] = test system: Nc1nc(O)c2ncn([C@H]3C[C@H](O)[C@@H](CO)O3)c2n1; settings: Homo sapiens; remark: listed apart in the source
Homo sapiens [3] = species: Homo sapiens
Homo sapiens [4] = species: Homo sapiens; remark: listed apart in the source

Deoxycytidine kinase (Homo sapiens), P27707, sequence (P27707 whole entry): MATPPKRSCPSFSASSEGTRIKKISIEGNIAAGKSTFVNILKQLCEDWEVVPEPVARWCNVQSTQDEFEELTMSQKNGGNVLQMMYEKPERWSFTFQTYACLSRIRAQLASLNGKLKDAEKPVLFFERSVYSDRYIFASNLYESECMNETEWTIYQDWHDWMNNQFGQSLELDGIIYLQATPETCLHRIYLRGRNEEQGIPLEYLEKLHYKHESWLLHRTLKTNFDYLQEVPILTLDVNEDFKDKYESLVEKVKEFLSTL

Row | Km (Homo sapiens [3]) [µM] | kcat (Homo sapiens [3]) [s⁻¹] | Km (Homo sapiens [4]) [µM] | kcat (Homo sapiens [4]) [s⁻¹] | Molecule | Km [1] [µM] | Km [2] [µM] | kcat [2] [s⁻¹]
1 | – | – | – | – | Deoxycytidine kinase (Homo sapiens), P27707 | 181 | 41 | 0.53
2 | 700 | 3.6 | 10.4 | 0.43 | Nc1nc(O)c2ncn([C@H]3C[C@H](O)[C@@H](CO)O3)c2n1 | – | – | –
